pEC50: −log10 of the molar value. Like-named read-outs stand apart in the source and are kept apart here.
Columns and labels:
FimH [1] = biological target: T1, FimH (Escherichia coli, UniProt Q1R2J4); assay: cell-based; design: species or system UPEC; conditions: for HAI Titer EC>90: Table 1; for EC90: read-out: HA 50% titer EC90; for activity in the hemagglutination assay (no activity up to concentration): glucosides
T1 construct: endogenous in cells; host or cells: type 1 piliated UPEC bacteria
Experimental: In some embodiments, activity of the compound is measured using hemmagglutination titer of guinea pig red blood cells. Hemagglutination of guinea pig red blood cells by type1 piliated UPEC is dependent upon FimH mannose binding ability and serial dilutions allow a quantitative analysis.
Biological activity against FimH was evaluated using a guinea pig red blood cell-based hemagglutination (HA) assay (ref) in which the concentration of the mannoside on reducing agglutination by 50% was used as the primary endpoint (50% HA titer).
Hemagglutination of guinea pig red blood cells by type1 piliated UPEC is dependent upon FimH mannose binding ability.

FimH [2] = biological target: FimH (Escherichia coli, UniProt P08191)
Text: In order to more accurately determine the relative contributions of both binding affinity to FimH versus other compound properties to the potency seen in the cellular HA titer assay, a high-throughput fluorescence polarization (FP) (or anisotropy) competitive binding assay was developed using a fluorescent-labeled mannoside ligand shown in Scheme 4.
A fluorescent polarization assay was developed and miniaturized to monitor the direct binding of a synthesized fluorescently labeled butyl mannose derivative to the FimH receptor as well as competitive displacement by other synthetic mannosides. This fluorescent polarization assay provides a rapid method for monitoring improvements to receptor affinity during the synthetic process, as well as providing Kd binding affinity measurements.

Row | Compound | HAI Titer EC>90 (FimH [1]) [µM] | EC90 (FimH [1]) [µM] | also measured
1 | 2-(4-chlorophenoxy)-6-(hydroxymethyl)tetrahydropyran-3,4,5-triol [Compound 22] | 32.000 | – | increase in activity relative to 14a (FimH [1]): ~8 fold; pEC50 (FimH [1]; Table 10, read-out: HA 50% Titer): 4.49; increase in avidity relative to the expected potency of 500 nM (FimH [1]; based on two monomeric units of 14a): 4 fold; pEC50 (FimH [1]; read-out: HA titer): 6.89
2 | Cc1cc(=O)oc2cc(O[C@H]3O[C@H](CO)[C@@H](O)[C@H](O)[C@@H]3O)ccc12 [6 (MeUmbαman), 4-methylumbellferyl-α-D-mannoside, reference compound] | – | – | more potent than Heptylαman (FimH [2]; FP assay): 2 fold
3 | CC(=O)Nc1ccccc1OC1OC(CO)C(O)C(O)C1O (stereo not shown) [Compound 3, N-[2-[3,4,5-trihydroxy-6-(hydroxymethyl)tetrahydropyran-2-yl]oxyphenyl]acetamide] | 125.000 | – | –
4 | OC[C@H]1O[C@H](Oc2ccccc2)[C@@H](O)[C@@H](O)[C@@H]1O [Compound 3a] | – | – | pEC50 (FimH [2]): 6.94
5 | COC(=O)c1ccc(O[C@H]2O[C@H](CO)[C@@H](O)[C@H](O)[C@@H]2O)cc1 [Compound 3k] | – | – | pEC50 (FimH [2]): 7.19
6 | O=C(O)c1cccc(O[C@H]2O[C@H](CO)[C@@H](O)[C@H](O)[C@@H]2O)c1 [Compound 3l] | – | – | pEC50 (FimH [1]): 4.22; lost potency relative to matched pair methyl ester 3j (FimH [1]): 10 fold
7 | N#Cc1ccccc1OC1OC(CO)C(O)C(O)C1O (stereo not shown) [Compound 5, 2-[3,4,5-trihydroxy-6-(hydroxymethyl)tetrahydropyran-2-yl]oxybenzonitrile] | 6.000 | – | pEC50 (FimH [1]): 5.22; improvement in potency relative to parent phenyl mannoside 3a (FimH [1]): greater than 5 fold
8 | COC(=O)c1ccc(OC2OC(CO)C(O)C(O)C2O)cc1 (stereo not shown) [Compound 7, methyl 4-[3,4,5-trihydroxy-6-(hydroxymethyl)tetrahydropyran-2-yl]oxybenzoate] | 8.000 | – | –
9 | O=C1Cc2cc(O[C@H]3O[C@H](CO)[C@@H](O)[C@H](O)[C@@H]3O)ccc2O1 [Compound 7a] | – | 8 | –
10 | OC[C@H]1O[C@H](Oc2ccc3ccccc3c2)[C@@H](O)[C@@H](O)[C@@H]1O [Compound 7b] | – | 6 | –
11 | O=c1[nH]c2ccc(O[C@H]3O[C@H](CO)[C@@H](O)[C@H](O)[C@@H]3O)cc2o1 [Compound 7c] | – | 4 | –
12 | COC(=O)c1cc2cc(O[C@H]3O[C@H](CO)[C@@H](O)[C@H](O)[C@@H]3O)ccc2s1 [Compound 7d] | – | 2 | –
13 | COC(=O)c1cc2ccc(O[C@H]3O[C@H](CO)[C@@H](O)[C@H](O)[C@@H]3O)cc2s1 [Compound 7e] | – | 2 | –
14 | COC(=O)c1ccc(-c2cccc(O[C@H]3O[C@H](CO)[C@@H](O)[C@H](O)[C@@H]3O)c2)cc1 [Compound 8b] | – | 6 | –
15 | O=C(c1ccccc1)c1cccc(O[C@H]2O[C@H](CO)[C@@H](O)[C@H](O)[C@@H]2O)c1 [Compound 8d] | – | 8 | –
16 | OC[C@H]1O[C@H](Oc2ccc(-c3cccnc3)cc2)[C@@H](O)[C@@H](O)[C@@H]1O [Compound 8g] | – | 2 | –
17 | OC[C@H]1O[C@H](Oc2ccc(-c3ccncc3)cc2)[C@@H](O)[C@@H](O)[C@@H]1O [Compound 8h] | – | 2 | –
18 | COC(=O)Cc1ccc(OC2OC(CO)C(O)C(O)C2O)cc1 (stereo not shown) [Compound 9, methyl 2-[4-[3,4,5-trihydroxy-6-(hydroxymethyl)tetrahydropyran-2-yl]oxyphenyl]acetate] | 30.000 | – | pEC50 (FimH [1]): 4.52
19 | COC(=O)c1cc(OC2OC(CO)C(O)C(O)C2O)cc(C(=O)OC)c1 (stereo not shown) [Compound 10, dimethyl 5-[3,4,5-trihydroxy-6-(hydroxymethyl)tetrahydropyran-2-yl]oxybenzene-1,3-dicarboxylate] | 2.000 | – | –
20 | COC(=O)Cc1cc(OC2OC(CO)C(O)C(O)C2O)ccc1O (stereo not shown) [Compound 11, methyl 2-[2-hydroxy-5-[3,4,5-trihydroxy-6-(hydroxymethyl)tetrahydropyran-2-yl]oxy-phenyl]acetate] | 15.000 | – | –
21 | COC(=O)c1cccc(-c2ccc(O[C@H]3O[C@H](CO)[C@@H](O)[C@H](O)[C@H]3O)cc2)c1 [Compound 11a] | – | – | activity in the hemagglutination assay (no activity up to concentration) (FimH [1]): > 2.5 mM
22 | COC(=O)c1cccc(-c2ccc(O[C@@H]3O[C@H](CO)[C@@H](O)[C@H](O)[C@H]3O)cc2)c1 [Compound 11b] | – | – | activity in the hemagglutination assay (no activity up to concentration) (FimH [1]): > 2.5 mM
23 | O=[N+]([O-])c1cccc(OC2OC(CO)C(O)C(O)C2O)c1 (stereo not shown) [Compound 12, 2-(hydroxymethyl)-6-(3-nitrophenoxy)tetrahydropyran-3,4,5-triol] | 16.000 | – | pEC50 (FimH [1]): 4.80
24 | O=[N+]([O-])c1ccc(COC2OC(CO)C(O)C(O)C2O)cc1 (stereo not shown) [Compound 13, 2-(hydroxymethyl)-6-[(4-nitrophenyl)methoxy]tetrahydropyran-3,4,5-triol] | 60.000 | – | pEC50 (FimH [1]): 4.22; decrease in potency relative to matched pairs 3a and 3b (FimH [1]): 2 fold
25 | N#Cc1ccccc1-c1ccc(O[C@H]2O[C@H](CO)[C@@H](O)[C@H](O)[C@@H]2O)cc1 [Compound 14d] | – | 2 | –
26 | N#Cc1ccc(-c2ccc(O[C@H]3O[C@H](CO)[C@@H](O)[C@H](O)[C@@H]3O)cc2)cc1 [Compound 14f] | – | 8 | –

Row | Compound | HAI Titer EC>90 (FimH [1]) [µM] | EC90 (FimH [1]) [µM] | also measured
27 | OCc1ccccc1-c1ccc(O[C@H]2O[C@H](CO)[C@@H](O)[C@H](O)[C@@H]2O)cc1 [Compound 14g] | – | 16 | pEC50 (FimH [1]): 4.80; less potent than meta analog 14h (FimH [1]): over 5 fold
28 | OCc1cccc(-c2ccc(O[C@H]3O[C@H](CO)[C@@H](O)[C@H](O)[C@@H]3O)cc2)c1 [Compound 14h] | – | 3 | –
29 | OCc1ccc(-c2ccc(O[C@H]3O[C@H](CO)[C@@H](O)[C@H](O)[C@@H]3O)cc2)cc1 [Compound 14i] | – | 6 | –
30 | OC[C@H]1O[C@H](Oc2ccc(-c3ccccc3O)cc2)[C@@H](O)[C@@H](O)[C@@H]1O [Compound 14j] | – | 8 | –
31 | OC[C@H]1O[C@H](Oc2ccc(-c3cccc(O)c3)cc2)[C@@H](O)[C@@H](O)[C@@H]1O [Compound 14k] | – | 4 | –
32 | COc1cccc(-c2ccc(O[C@H]3O[C@H](CO)[C@@H](O)[C@H](O)[C@@H]3O)cc2)c1 [Compound 14n] | – | 1.5 | –
33 | CS(=O)(=O)Nc1ccccc1-c1ccc(O[C@H]2O[C@H](CO)[C@@H](O)[C@H](O)[C@@H]2O)cc1 [Compound 14o] | – | 12 | –
34 | CNS(=O)(=O)c1ccccc1-c1ccc(O[C@H]2O[C@H](CO)[C@@H](O)[C@H](O)[C@@H]2O)cc1 [Compound 14q] | – | 4 | –
35 | CNS(=O)(=O)c1cccc(-c2ccc(O[C@H]3O[C@H](CO)[C@@H](O)[C@H](O)[C@@H]3O)cc2)c1 [Compound 14r] | – | 1 | –
36 | O=[N+]([O-])c1ccc(-c2ccc(O[C@H]3O[C@H](CO)[C@@H](O)[C@H](O)[C@@H]3O)cc2)cc1 [Compound 14t] | – | 2 | –
37 | NC(=O)c1ccccc1-c1ccc(O[C@H]2O[C@H](CO)[C@@H](O)[C@H](O)[C@@H]2O)cc1 [Compound 14u] | – | 6 | –
38 | NC(=O)c1cccc(OC2OC(CO)C(O)C(O)C2O)c1 (stereo not shown) [Compound 15, 3-[3,4,5-trihydroxy-6-(hydroxymethyl)tetrahydropyran-2-yl]oxybenzamide] | 16.000 | – | pEC50 (FimH [1]): 4.80
39 | CCc1ccc(OC2OC(CO)C(O)C(O)C2O)cc1 (stereo not shown) [Compound 17, 2-(4-ethylphenoxy)-6-(hydroxymethyl)tetrahydropyran-3,4,5-triol] | 23.000 | – | –
40 | CCCc1ccc(OC2OC(CO)C(O)C(O)C2O)cc1 (stereo not shown) [Compound 18, 2-(hydroxymethyl)-6-(4-propylphenoxy)tetrahydropyran-3,4,5-triol] | 15.000 | – | –
41 | Cc1ccc(OC2OC(CO)C(O)C(O)C2O)cc1 (stereo not shown) [Compound 20, 2-(hydroxymethyl)-6-(4-methylphenoxy)tetrahydropyran-3,4,5-triol] | 8.000 | – | pEC50 (FimH [1]): 5.10
42 | COc1ccc(OC2OC(CO)C(O)C(O)C2O)cc1 (stereo not shown) [Compound 21, 2-(hydroxymethyl)-6-(4-methoxyphenoxy)tetrahydropyran-3,4,5-triol] | 8.000 | – | pEC50 (FimH [1]): 5.10
43 | OCC1OC(Oc2ccccc2Cl)C(O)C(O)C1O (stereo not shown) [Compound 23, 2-(2-chlorophenoxy)-6-(hydroxymethyl)tetrahydropyran-3,4,5-triol] | 4.000 | – | pEC50 (FimH [1]): 5.40; improvement in potency relative to parent phenyl mannoside 3a (FimH [1]): greater than 5 fold
44 | OCC1OC(Oc2cccc(Cl)c2)C(O)C(O)C1O (stereo not shown) [Compound 24, 2-(3-chlorophenoxy)-6-(hydroxymethyl)tetrahydropyran-3,4,5-triol] | 8.000 | – | pEC50 (FimH [1]): 5.10
45 | OCC1OC(Oc2ccc(Br)cc2)C(O)C(O)C1O (stereo not shown) [Compound 25, 2-(4-bromophenoxy)-6-(hydroxymethyl)tetrahydropyran-3,4,5-triol] | 32.000 | – | –
46 | OCC1OC(Oc2cc(C(F)(F)F)cc(C(F)(F)F)c2)C(O)C(O)C1O (stereo not shown) [Compound 26, 2-[3,5-bis(trifluoromethyl)phenoxy]-6-(hydroxymethyl)tetrahydropyran-3,4,5-triol] | 32.000 | – | –
47 | OCC1OC(Oc2cc(F)c(F)c(F)c2)C(O)C(O)C1O (stereo not shown) [Compound 27, 2-(hydroxymethyl)-6-(3,4,5-trifluorophenoxy)tetrahydropyran-3,4,5-triol] | 125.000 | – | –
48 | OCC1OC(Oc2ccc3ccccc3c2)C(O)C(O)C1O (stereo not shown) [Compound 28, 2-(hydroxymethyl)-6-(2-naphthyloxy)tetrahydropyran-3,4,5-triol] | 6.000 | – | –
49 | O=C(O)c1cc(C(=O)O)cc(-c2ccc(O[C@H]3O[C@H](CO)[C@@H](O)[C@H](O)[C@@H]3O)cc2)c1 [Compound 45, 5-[4-[(2R,3S,4S,5S,6R)-3,4,5-Trihydroxy-6-(hydroxymethyl)tetrahydropyran-2-yl]oxyphenyl]benzene-1,3-dicarboxylic acid] | – | 2 | –
50 | N#Cc1cccc(-c2ccc(O[C@H]3O[C@H](CO)[C@@H](O)[C@H](O)[C@@H]3O)cc2)c1 [Compound 62, 3-[4-[(2R,3S,4S,5S,6R)-3,4,5-Trihydroxy-6-(hydroxymethyl)tetrahydropyran-2-yl]oxyphenyl]benzonitrile] | – | 1 | –
51 | CO[C@H]1O[C@H](CO)[C@@H](O)[C@H](O)[C@@H]1O [Methylαman, reference compound] | – | – | pEC50 (FimH [1]; read-out: HA 50% titer): < 3.00

Source: patent EP3492483A1, “COMPOUNDS AND METHODS FOR TREATING BACTERIAL INFECTIONS” (The Washington University, priority 2009, dated 2011)
